From patent US11191854B2, “Pharmacokinetic enhancements of bifunctional chelates and uses thereof” (Centre for Probe Development and Commercialization, priority 2017, dated 2021)

Test: Metabolic excretion study (urine and feces collection in metabolic cages) of 177Lu-labelled human IgG conjugates
Type: in vivo, mice (normal CD-1 or athymic CD-1 nude)
Conditions: mice, intravenous, 7 day period; tested as [177Lu]-HuMIgG conjugates
Protocol: Groups of 4 or 5 mice (normal CD-1 or athymic CD-1 nude) were injected intravenously with approximately 15 microcuries of radiolabelled test compound. Test compounds with various linkers were synthesized and radiolabelled with lutetium-177. For pharmacokinetic studies, animals were sacrificed at specific time points, and blood and tumor (when applicable) were analyzed for total radioactivity. For metabolism studies, animals were placed in metabolic cages (4-5 per cage) for urine and feces collection every 24 hours for up to 7 days. The radioactive content of urine and feces samples was quantified and converted to total urine or feces output based on weight. Excretion profiles for urine, feces, or total excretion (urine+feces) were generated by plotting cumulative % injected dose (%ID) over time.
The human IgG preparation used consisted of a purified mixture of all IgG isotypes (IgG1-4).

| Structure (SMILES) | total excretion of radioactivity compared to Compound A-HuMIgG |
| --- | --- |
| O=C(O)CN1CCN(CC(=O)O)CCN(C(CCC(=O)NCCCCCCCCCCC(=O)Oc2c(F)c(F)cc(F)c2F)C(=O)O)CCN(CC(=O)O)CC1 (centres unmarked) [Compound B, 4-{[11-oxo-11-(2,3,5,6-tetrafluorophenoxy)undecyl]carbamoyl}-2-[4,7,10-tris(carboxymethyl)-1,4,7,10-tetraazacyclododecan-1-yl]butanoic acid] | increased the amount total excretion of radioactivity |
| O=C(O)CN1CCN(CC(=O)O)CCN(C(CCC(=O)NCCOCCOCCOCCC(=O)Oc2c(F)c(F)cc(F)c2F)C(=O)O)CCN(CC(=O)O)CC1 (centres unmarked) [Compound C, 4-{[2-(2-{2-[3-oxo-3-(2,3,5,6-tetrafluorophenoxy)propoxy]ethoxy}ethoxy)ethyl]carbamoyl}-2-[4,7,10-tris(carboxymethyl)-1,4,7,10-tetraazacyclododecan-1-yl]butanoic acid] | increased the amount total excretion of radioactivity |
